Assay results published in ChEMBL document CHEMBL4406790, “Targeted Treatments for Chronic Obstructive Pulmonary Disease (COPD) Using Low-Molecular-Weight Drugs (LMWDs)” (J Med Chem, 2019).
Values belong to the molecule of their own block, whether it stands above or below them.

Columns and labels:
[1] = target: T1, Muscarinic acetylcholine receptor M2 (Homo sapiens, UniProt P08172); experiment: Inhibition of M2 receptor (unknown origin)
T1 sequence (P08172 whole entry): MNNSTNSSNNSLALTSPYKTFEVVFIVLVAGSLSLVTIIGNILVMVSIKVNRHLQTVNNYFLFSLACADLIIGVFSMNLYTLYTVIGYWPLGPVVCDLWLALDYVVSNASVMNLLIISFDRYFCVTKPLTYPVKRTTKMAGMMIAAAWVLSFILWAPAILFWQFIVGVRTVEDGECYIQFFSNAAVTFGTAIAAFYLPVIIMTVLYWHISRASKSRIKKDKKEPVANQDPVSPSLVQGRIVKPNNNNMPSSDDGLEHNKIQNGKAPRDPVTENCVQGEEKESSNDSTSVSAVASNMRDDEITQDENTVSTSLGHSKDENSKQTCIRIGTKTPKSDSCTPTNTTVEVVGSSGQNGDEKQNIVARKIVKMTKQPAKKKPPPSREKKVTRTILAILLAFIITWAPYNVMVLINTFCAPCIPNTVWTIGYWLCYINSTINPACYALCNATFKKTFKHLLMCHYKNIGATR

[2] = target: Muscarinic acetylcholine receptor M3 (Homo sapiens, UniProt P20309); experiment: Antagonist activity at human M3 receptor
[3] = target: T2, Beta-2 adrenergic receptor (Homo sapiens, UniProt P07550); experiment: Agonist activity at human beta2 adrenoceptor
[4] = Half life in human; format: ADME
[5] = Oral bioavailability in human; format: ADME, organism-based; conditions: in vivo
[6] = target: Macrophage metalloelastase (Homo sapiens, UniProt P39900); experiment: Inhibition of MMP12 (unknown origin)
[7] = target: 3',5'-cyclic-AMP phosphodiesterase 4B (Homo sapiens, UniProt Q07343); experiment: Inhibition of PDE4B2 (unknown origin)
[8] = target: T2, Beta-2 adrenergic receptor; experiment: Inhibition of beta2 adrenoceptor (unknown origin)
[9] = target: Voltage-gated inwardly rectifying potassium channel KCNH2 (Homo sapiens, UniProt Q12809); experiment: Inhibition of human ERG by high throughput automated patch clamp method
[10] = Inhibition of TNFalpha-induced NFkappaB (unknown origin); set-up: species or system Homo sapiens

T2 sequence (P07550 whole entry): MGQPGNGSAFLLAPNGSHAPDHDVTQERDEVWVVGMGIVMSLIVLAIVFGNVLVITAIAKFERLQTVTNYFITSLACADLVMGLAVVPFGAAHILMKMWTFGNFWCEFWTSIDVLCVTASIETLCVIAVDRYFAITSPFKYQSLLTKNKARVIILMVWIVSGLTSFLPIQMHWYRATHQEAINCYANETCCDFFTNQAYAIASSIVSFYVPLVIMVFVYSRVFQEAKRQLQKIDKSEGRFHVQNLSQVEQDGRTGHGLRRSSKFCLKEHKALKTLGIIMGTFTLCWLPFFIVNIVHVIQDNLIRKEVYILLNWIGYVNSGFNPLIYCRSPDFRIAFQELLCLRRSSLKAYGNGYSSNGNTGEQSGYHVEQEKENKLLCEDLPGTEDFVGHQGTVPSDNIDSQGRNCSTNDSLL
Muscarinic acetylcholine receptor M3, sequence (P20309 whole entry): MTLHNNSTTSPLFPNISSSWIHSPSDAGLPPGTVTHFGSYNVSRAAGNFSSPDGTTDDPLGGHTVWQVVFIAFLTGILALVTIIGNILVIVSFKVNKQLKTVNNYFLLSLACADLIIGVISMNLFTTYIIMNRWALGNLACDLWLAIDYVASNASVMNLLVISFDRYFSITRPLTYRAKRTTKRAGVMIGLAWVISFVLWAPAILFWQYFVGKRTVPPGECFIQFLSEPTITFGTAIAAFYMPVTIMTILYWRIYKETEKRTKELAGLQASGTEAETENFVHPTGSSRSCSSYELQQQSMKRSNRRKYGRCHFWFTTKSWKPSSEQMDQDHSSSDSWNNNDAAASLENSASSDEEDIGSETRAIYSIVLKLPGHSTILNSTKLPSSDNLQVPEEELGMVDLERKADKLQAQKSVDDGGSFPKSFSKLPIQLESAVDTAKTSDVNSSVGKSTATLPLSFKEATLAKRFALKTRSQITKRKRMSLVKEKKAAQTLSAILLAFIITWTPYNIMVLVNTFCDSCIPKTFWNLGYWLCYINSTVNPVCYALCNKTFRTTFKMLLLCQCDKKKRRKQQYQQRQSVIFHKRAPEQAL
Voltage-gated inwardly rectifying potassium channel KCNH2, sequence (Q12809 whole entry): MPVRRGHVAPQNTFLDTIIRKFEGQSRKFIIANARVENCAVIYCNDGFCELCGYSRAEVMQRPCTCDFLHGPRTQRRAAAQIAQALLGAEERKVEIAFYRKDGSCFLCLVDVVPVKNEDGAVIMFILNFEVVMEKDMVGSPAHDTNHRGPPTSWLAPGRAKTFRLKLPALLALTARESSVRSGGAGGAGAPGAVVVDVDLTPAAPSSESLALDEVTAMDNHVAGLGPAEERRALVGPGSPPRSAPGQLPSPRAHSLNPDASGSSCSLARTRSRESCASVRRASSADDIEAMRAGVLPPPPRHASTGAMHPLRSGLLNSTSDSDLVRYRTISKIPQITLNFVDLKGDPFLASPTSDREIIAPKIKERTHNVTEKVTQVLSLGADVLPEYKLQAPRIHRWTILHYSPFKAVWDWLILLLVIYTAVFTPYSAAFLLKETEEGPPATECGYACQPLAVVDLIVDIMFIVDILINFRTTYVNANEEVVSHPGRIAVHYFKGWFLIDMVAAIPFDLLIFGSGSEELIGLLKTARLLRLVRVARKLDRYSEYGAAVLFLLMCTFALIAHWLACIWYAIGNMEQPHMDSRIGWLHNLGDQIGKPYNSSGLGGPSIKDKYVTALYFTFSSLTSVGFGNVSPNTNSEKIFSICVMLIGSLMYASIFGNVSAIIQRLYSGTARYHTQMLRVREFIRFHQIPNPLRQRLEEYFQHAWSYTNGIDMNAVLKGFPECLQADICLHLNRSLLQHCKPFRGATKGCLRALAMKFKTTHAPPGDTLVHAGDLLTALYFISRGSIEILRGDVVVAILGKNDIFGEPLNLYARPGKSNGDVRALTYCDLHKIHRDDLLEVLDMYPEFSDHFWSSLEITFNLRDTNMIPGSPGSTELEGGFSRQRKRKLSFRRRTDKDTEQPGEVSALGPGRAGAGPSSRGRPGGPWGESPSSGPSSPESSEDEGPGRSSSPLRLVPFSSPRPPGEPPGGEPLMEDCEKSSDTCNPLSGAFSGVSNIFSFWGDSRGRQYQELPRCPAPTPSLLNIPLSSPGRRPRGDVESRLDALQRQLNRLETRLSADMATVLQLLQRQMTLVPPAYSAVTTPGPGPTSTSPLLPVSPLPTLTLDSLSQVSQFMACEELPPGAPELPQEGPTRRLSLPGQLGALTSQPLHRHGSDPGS
Macrophage metalloelastase, sequence (P39900 whole entry): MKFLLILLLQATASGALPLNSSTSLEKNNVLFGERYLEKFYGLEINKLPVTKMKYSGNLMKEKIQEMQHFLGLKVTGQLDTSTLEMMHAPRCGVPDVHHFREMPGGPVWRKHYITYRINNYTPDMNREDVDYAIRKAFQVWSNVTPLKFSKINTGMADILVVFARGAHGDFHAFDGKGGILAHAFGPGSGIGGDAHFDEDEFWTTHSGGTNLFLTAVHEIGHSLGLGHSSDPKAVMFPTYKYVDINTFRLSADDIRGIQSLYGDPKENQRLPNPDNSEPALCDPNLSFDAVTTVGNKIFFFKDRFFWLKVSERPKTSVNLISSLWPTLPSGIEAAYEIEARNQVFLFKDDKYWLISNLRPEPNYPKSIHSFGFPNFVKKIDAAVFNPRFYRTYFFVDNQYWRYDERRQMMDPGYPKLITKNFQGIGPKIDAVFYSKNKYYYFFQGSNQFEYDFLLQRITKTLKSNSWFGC
3',5'-cyclic-AMP phosphodiesterase 4B, sequence (Q07343 whole entry): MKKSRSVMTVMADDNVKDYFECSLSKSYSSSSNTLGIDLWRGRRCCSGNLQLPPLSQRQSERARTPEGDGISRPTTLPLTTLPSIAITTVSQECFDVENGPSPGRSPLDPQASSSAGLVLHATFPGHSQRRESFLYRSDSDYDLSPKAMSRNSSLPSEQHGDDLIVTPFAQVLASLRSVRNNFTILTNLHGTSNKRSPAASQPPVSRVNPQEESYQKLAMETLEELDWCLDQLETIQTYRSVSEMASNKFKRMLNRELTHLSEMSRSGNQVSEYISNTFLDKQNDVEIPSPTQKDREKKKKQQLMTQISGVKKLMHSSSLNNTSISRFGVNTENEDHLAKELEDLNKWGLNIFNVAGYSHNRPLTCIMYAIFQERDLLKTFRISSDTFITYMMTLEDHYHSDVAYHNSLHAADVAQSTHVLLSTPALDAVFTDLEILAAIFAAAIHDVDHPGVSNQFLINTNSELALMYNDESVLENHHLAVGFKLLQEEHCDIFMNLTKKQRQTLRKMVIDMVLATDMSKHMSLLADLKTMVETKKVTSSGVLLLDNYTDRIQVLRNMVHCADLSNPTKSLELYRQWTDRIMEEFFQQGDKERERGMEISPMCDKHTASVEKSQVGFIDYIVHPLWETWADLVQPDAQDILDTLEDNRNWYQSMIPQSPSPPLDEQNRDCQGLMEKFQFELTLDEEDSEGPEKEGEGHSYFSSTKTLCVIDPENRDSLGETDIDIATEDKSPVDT

Structure (SMILES): C[N+]12CCC(CC1)C(OCC(O)(c1ccccc1)C1CCCC1)C2 (stereo unspecified) [BENCYCLOQUIDIUM BROMIDE]
- Ki [1]: 6.17 nM

Structure (SMILES): CN(CCCn1nnc2cc(CNC[C@H](O)c3ccc(O)c4[nH]c(=O)ccc34)ccc21)[C@H]1CC[C@H](OC(=O)C(O)(c2cccs2)c2cccs2)CC1 [NAVAFENTEROL]
- IC50 [2]: 1.58 nM
- EC50 [3]: 0.251 nM

Structure (SMILES): COc1cc(NC(=O)OCCN(C)[C@H]2CC[C@H](OC(=O)C(O)(c3cccs3)c3cccs3)CC2)c(Cl)cc1CNC[C@H](O)c1ccc(O)c2[nH]c(=O)ccc12 [LAS190792]
- EC50 [3]: 0.251 nM

Structure (SMILES): CC(C)(O)c1coc(S(=O)(=O)NC(=O)Nc2c3c(cc4c2CCC4)CCC3)c1
- IC50 [9]: > 30000 nM
- half-life [4]: 3.27 h
- bioavailability [5]: 68%

Structure (SMILES): O=C(Nc1cc(C(F)(F)F)cc(C(F)(F)F)c1)c1cc(Cl)ccc1O [IMD-0354]
- IC50 [10]: 1200 nM

The remaining lines, values ahead:

- IC50 [2]: 1.58 nM
Structure (SMILES): COc1cc(NC(=O)CCN2CCC(OC(=O)Nc3ccccc3-c3ccccc3)CC2)c(Cl)cc1CNC[C@H](O)c1ccc(O)c2[nH]c(=O)ccc12 [BATEFENTEROL]

- half-life [4]: 8.5 h
- bioavailability [5]: 63%
Structure (SMILES): CC1=C(C#N)[C@@H](c2ccc(C#N)cc2S(C)(=O)=O)N(C)C(=O)N1c1cccc(C(F)(F)F)c1

- IC50 [6]: 0.2 nM
Structure (SMILES): COc1ccc(Oc2ccc(S(=O)(=O)c3ccccc3CC(=O)NO)cc2)cc1

- IC50 [7]: 5 nM
- IC50 [8]: 11 nM
Structure (SMILES): COc1cccc(Nc2c(C(N)=O)cnc3c(C)cc(S(=O)(=O)c4cccc(C(=O)Nc5ccc(C#CCCCNC[C@H](O)c6ccc(O)c7[nH]c(=O)ccc67)cc5)c4)cc23)c1

- IC50 [2]: 1.58 nM
- EC50 [3]: 0.251 nM
Structure (SMILES): CC(C)c1ncc(C(=O)N2CCOC3(CCN(Cc4ccc(F)c(CCNC[C@H](O)c5ccc(O)c6[nH]c(=O)sc56)c4)CC3)C2)s1
